Experiments:
Danio rerio embryo [1] = test system: Danio rerio embryo
Procedure: (§1)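 Zebrafish embryos (UFZ-OBI strain) were exposed from 2 hpf for 48 h (2 dpf) or 96 h (4 dpf) at 28 °C; spontaneous tail coiling was scored at 25 hpf. Morphological features from automated image analysis (FishInspector), heart rate and locomotor response were fitted with drc models. Quantal endpoints were dichotomised at 2.5 SD from controls and fitted with a log-logistic model; heart rate, pigmentation and STC were normalised to the replicate control mean. Betamethasone was tested as betamethasone dipropionate, diflorasone as diflorasone diacetate.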

Danio rerio embryo [2] = settings: exposure time: 4 dpf
Procedure: as §1

Danio rerio embryo [3] = experiment: EC50 Curvature_Increase
Procedure: as §1

Danio rerio embryo [4] = experiment: EC50 Body length_Decrease
Procedure: as §1

Danio rerio embryo [5] = experiment: EC50 Bladder size_Decrease; settings: exposure time: 4 dpf
Procedure: as §1

Danio rerio embryo [6] = experiment: EC50 Pericard size_Increase; settings: exposure time: 4 dpf
Procedure: as §1

Danio rerio embryo [7] = experiment: EC50 Yolk sac size_Increase; settings: exposure time: 4 dpf
Procedure: as §1

Danio rerio embryo [8] = experiment: EC50 Eye-jaw distance_Decrease; settings: exposure time: 4 dpf
Procedure: as §1

Danio rerio embryo [9] = experiment: EC50 Otolith-eye distance_Decrease; settings: exposure time: 4 dpf
Procedure: as §1

Danio rerio embryo [10] = experiment: EC10 LMR dark; higher = less potent; settings: exposure time: 4 dpf
Procedure: as §1

Danio rerio embryo [11] = experiment: EC20 LMR dark; higher = less potent; settings: exposure time: 4 dpf
Procedure: as §1

Danio rerio embryo [12] = experiment: EC20 Any effect; higher = less potent
Procedure: as §1

Danio rerio embryo [13] = experiment: EC10 Any effect; higher = less potent
Procedure: as §1

Danio rerio embryo [14] = experiment: EC10 Curvature_Increase; higher = less potent
Procedure: as §1

Danio rerio embryo [15] = experiment: EC20 Curvature_Increase; higher = less potent
Procedure: as §1

Danio rerio embryo [16] = experiment: EC20 Body length_Decrease; higher = less potent
Procedure: as §1

Danio rerio embryo [17] = experiment: EC10 Body length_Decrease; higher = less potent
Procedure: as §1

Danio rerio embryo [18] = experiment: EC10 Bladder size_Decrease; higher = less potent; settings: exposure time: 4 dpf
Procedure: as §1

Danio rerio embryo [19] = experiment: EC20 Bladder size_Decrease; higher = less potent; settings: exposure time: 4 dpf
Procedure: as §1

Danio rerio embryo [20] = experiment: EC20 Yolk sac size_Increase; higher = less potent; settings: exposure time: 4 dpf
Procedure: as §1

Danio rerio embryo [21] = experiment: EC20 Pericard size_Increase; higher = less potent; settings: exposure time: 4 dpf
Procedure: as §1

Danio rerio embryo [22] = experiment: EC10 Yolk sac size_Increase; higher = less potent; settings: exposure time: 4 dpf
Procedure: as §1

Danio rerio embryo [23] = experiment: EC10 Pericard size_Increase; higher = less potent; settings: exposure time: 4 dpf
Procedure: as §1

Danio rerio embryo [24] = experiment: EC20 Eye-jaw distance_Decrease; higher = less potent; settings: exposure time: 4 dpf
Procedure: as §1

Danio rerio embryo [25] = experiment: EC10 Eye-jaw distance_Decrease; higher = less potent; settings: exposure time: 4 dpf
Procedure: as §1

Danio rerio embryo [26] = experiment: EC20 Head trunk angle_Decrease; higher = less potent; settings: exposure time: 2 dpf
Procedure: as §1

Danio rerio embryo [27] = experiment: EC20 Otolith-eye distance_Decrease; higher = less potent; settings: exposure time: 4 dpf
Procedure: as §1

Danio rerio embryo [28] = experiment: EC10 Otolith-eye distance_Decrease; higher = less potent; settings: exposure time: 4 dpf
Procedure: as §1

Danio rerio embryo [29] = experiment: spontaneous tail coiling frequency (coils/min/embryo); higher = more spontaneous movement; settings: 25 hpf
Procedure: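 Spontaneous tail coilings of zebrafish embryos exposed from 2 hpf were recorded at 24-25 hpf in 1-min videos and detected by a KNIME workflow from grey-value variance. Betamethasone was tested as the dipropionate, diflorasone as the diacetate.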

CN(Cc1cnc2nc(N)nc(N)c2n1)c1ccc(C(=O)N[C@@H](CCC(=O)O)C(=O)O)cc1 [Methotrexate]
Settings	EC10 Any effect [µM]	EC10 Body length Decrease [µM]	EC10 Curvature Increase [µM]	EC20 Any effect [µM]	EC20 Body length Decrease [µM]	EC20 Curvature Increase [µM]	EC50 Any effect [µM]	EC50 Body length Decrease [µM]	EC50 Curvature Increase [µM]	EC50 LMR ligth decrease [µM]	spontaneous tail coiling frequency
Danio rerio embryo [1], exposure time: 2 dpf	–	–	–	–	–	–	207	–	–	–	–
Danio rerio embryo [1], exposure time: 4 dpf	–	–	–	–	–	–	116	–	–	127	–
Danio rerio embryo [3], exposure time: 2 dpf	–	–	–	–	–	–	–	–	250	–	–
Danio rerio embryo [3], exposure time: 4 dpf	–	–	–	–	–	–	–	–	219	–	–
Danio rerio embryo [4], exposure time: 2 dpf	–	–	–	–	–	–	–	241	–	–	–
Danio rerio embryo [4], exposure time: 4 dpf	–	–	–	–	–	–	–	214	–	–	–
Danio rerio embryo [12], exposure time: 2 dpf	–	–	–	126	–	–	–	–	–	–	–
Danio rerio embryo [12], exposure time: 4 dpf	–	–	–	55.2	–	–	–	–	–	–	–
Danio rerio embryo [13], exposure time: 2 dpf	93.9	–	–	–	–	–	–	–	–	–	–
Danio rerio embryo [13], exposure time: 4 dpf	35.7	–	–	–	–	–	–	–	–	–	–
Danio rerio embryo [14], exposure time: 2 dpf	–	–	133	–	–	–	–	–	–	–	–
Danio rerio embryo [14], exposure time: 4 dpf	–	–	172	–	–	–	–	–	–	–	–
Danio rerio embryo [15], exposure time: 2 dpf	–	–	–	–	–	168	–	–	–	–	–
Danio rerio embryo [15], exposure time: 4 dpf	–	–	–	–	–	188	–	–	–	–	–
Danio rerio embryo [16], exposure time: 2 dpf	–	–	–	–	180	–	–	–	–	–	–
Danio rerio embryo [16], exposure time: 4 dpf	–	–	–	–	136	–	–	–	–	–	–
Danio rerio embryo [17], exposure time: 2 dpf	–	151	–	–	–	–	–	–	–	–	–
Danio rerio embryo [17], exposure time: 4 dpf	–	104	–	–	–	–	–	–	–	–	–
Danio rerio embryo [29], 43.5 µM	–	–	–	–	–	–	–	–	–	–	3.02
Danio rerio embryo [29], 65.2 µM	–	–	–	–	–	–	–	–	–	–	3.58
Danio rerio embryo [29], 97.8 µM	–	–	–	–	–	–	–	–	–	–	2.42
Danio rerio embryo [29], 146.7 µM	–	–	–	–	–	–	–	–	–	–	1.83
Danio rerio embryo [29], 220.1 µM	–	–	–	–	–	–	–	–	–	–	2.71
Danio rerio embryo [29], 330.1 µM	–	–	–	–	–	–	–	–	–	–	3.53
Danio rerio embryo [29], 440.1 µM	–	–	–	–	–	–	–	–	–	–	3.51

Settings	EC10 Bladder size Decrease [µM]	EC10 Eye-jaw distance Decrease [µM]	EC10 LMR dark [µM]	EC10 Otolith-eye distance Decrease [µM]	EC10 Pericard size Increase [µM]	EC10 Yolk sac size Increase [µM]	EC20 Bladder size Decrease [µM]	EC20 Eye-jaw distance Decrease [µM]	EC20 Head trunk angle Decrease [µM]	EC20 LMR dark [µM]	EC20 Otolith-eye distance Decrease [µM]	EC20 Pericard size Increase [µM]	EC20 Yolk sac size Increase [µM]	EC50 Bladder size Decrease [µM]	EC50 Eye-jaw distance Decrease [µM]	EC50 LMR dark [µM]	EC50 Otolith-eye distance Decrease [µM]	EC50 Pericard size Increase [µM]	EC50 Yolk sac size Increase [µM]
Danio rerio embryo [2]	–	–	–	–	–	–	–	–	–	–	–	–	–	–	–	243	–	–	–
Danio rerio embryo [5]	–	–	–	–	–	–	–	–	–	–	–	–	–	108	–	–	–	–	–
Danio rerio embryo [6]	–	–	–	–	–	–	–	–	–	–	–	–	–	–	–	–	–	385	–
Danio rerio embryo [7]	–	–	–	–	–	–	–	–	–	–	–	–	–	–	–	–	–	–	173
Danio rerio embryo [8]	–	–	–	–	–	–	–	–	–	–	–	–	–	–	197	–	–	–	–
Danio rerio embryo [9]	–	–	–	–	–	–	–	–	–	–	–	–	–	–	–	–	248	–	–
Danio rerio embryo [10]	–	–	186	–	–	–	–	–	–	–	–	–	–	–	–	–	–	–	–
Danio rerio embryo [11]	–	–	–	–	–	–	–	–	–	206	–	–	–	–	–	–	–	–	–
Danio rerio embryo [18]	95.7	–	–	–	–	–	–	–	–	–	–	–	–	–	–	–	–	–	–
Danio rerio embryo [19]	–	–	–	–	–	–	99.9	–	–	–	–	–	–	–	–	–	–	–	–
Danio rerio embryo [20]	–	–	–	–	–	–	–	–	–	–	–	–	44.7	–	–	–	–	–	–
Danio rerio embryo [21]	–	–	–	–	–	–	–	–	–	–	–	193	–	–	–	–	–	–	–
Danio rerio embryo [22]	–	–	–	–	–	20.2	–	–	–	–	–	–	–	–	–	–	–	–	–
Danio rerio embryo [23]	–	–	–	–	129	–	–	–	–	–	–	–	–	–	–	–	–	–	–
Danio rerio embryo [24]	–	–	–	–	–	–	–	146	–	–	–	–	–	–	–	–	–	–	–
Danio rerio embryo [25]	–	122	–	–	–	–	–	–	–	–	–	–	–	–	–	–	–	–	–
Danio rerio embryo [26]	–	–	–	–	–	–	–	–	180	–	–	–	–	–	–	–	–	–	–
Danio rerio embryo [27]	–	–	–	–	–	–	–	–	–	–	154	–	–	–	–	–	–	–	–
Danio rerio embryo [28]	–	–	–	116	–	–	–	–	–	–	–	–	–	–	–	–	–	–	–

CCCNCC(O)COc1ccccc1C(=O)CCc1ccccc1 (stereo not drawn) [Propafenone]
Settings	EC10 Any effect [µM]	EC10 Body length Decrease [µM]	EC10 Curvature Increase [µM]	EC20 Any effect [µM]	EC20 Body length Decrease [µM]	EC20 Curvature Increase [µM]	EC50 Any effect [µM]	EC50 Body length Decrease [µM]	EC50 Curvature Increase [µM]	EC50 LMR ligth increase [µM]	EC50 Pigmentation increase [µM]	EC50 STC decrease [µM]	spontaneous tail coiling frequency
Danio rerio embryo [1], exposure time: 4 dpf	–	–	–	–	–	–	20.6	–	–	19.6	34.7	–	–
Danio rerio embryo [1], exposure time: 25 h	–	–	–	–	–	–	–	–	–	–	–	47.5	–
Danio rerio embryo [3], exposure time: 2 dpf	–	–	–	–	–	–	–	–	131	–	–	–	–
Danio rerio embryo [4], exposure time: 2 dpf	–	–	–	–	–	–	–	79.5	–	–	–	–	–
Danio rerio embryo [12], exposure time: 4 dpf	–	–	–	18.9	–	–	–	–	–	–	–	–	–
Danio rerio embryo [13], exposure time: 4 dpf	17.9	–	–	–	–	–	–	–	–	–	–	–	–
Danio rerio embryo [14], exposure time: 2 dpf	–	–	27.6	–	–	–	–	–	–	–	–	–	–
Danio rerio embryo [15], exposure time: 2 dpf	–	–	–	–	–	49	–	–	–	–	–	–	–
Danio rerio embryo [16], exposure time: 2 dpf	–	–	–	–	34.1	–	–	–	–	–	–	–	–
Danio rerio embryo [17], exposure time: 2 dpf	–	20.8	–	–	–	–	–	–	–	–	–	–	–
Danio rerio embryo [29], 8.8 µM	–	–	–	–	–	–	–	–	–	–	–	–	1.68
Danio rerio embryo [29], 13.2 µM	–	–	–	–	–	–	–	–	–	–	–	–	1.86
Danio rerio embryo [29], 19.8 µM	–	–	–	–	–	–	–	–	–	–	–	–	1.81
Danio rerio embryo [29], 29.6 µM	–	–	–	–	–	–	–	–	–	–	–	–	0.98
Danio rerio embryo [29], 44.5 µM	–	–	–	–	–	–	–	–	–	–	–	–	1.23
Danio rerio embryo [29], 66.7 µM	–	–	–	–	–	–	–	–	–	–	–	–	1
Danio rerio embryo [29], 100 µM	–	–	–	–	–	–	–	–	–	–	–	–	0.422
Danio rerio embryo [29], 142.9 µM	–	–	–	–	–	–	–	–	–	–	–	–	0.49

Settings	EC10 Bladder size Decrease [µM]	EC10 Eye-jaw distance Decrease [µM]	EC10 LMR dark [µM]	EC10 Otolith-eye distance Decrease [µM]	EC10 Pericard size Increase [µM]	EC10 Yolk sac size Increase [µM]	EC20 Bladder size Decrease [µM]	EC20 Eye-jaw distance Decrease [µM]	EC20 LMR dark [µM]	EC20 Otolith-eye distance Decrease [µM]	EC20 Pericard size Increase [µM]	EC20 Yolk sac size Increase [µM]	EC50 Bladder size Decrease [µM]	EC50 Eye-jaw distance Decrease [µM]	EC50 LMR dark [µM]	EC50 Otolith-eye distance Decrease [µM]	EC50 Pericard size Increase [µM]	EC50 Yolk sac size Increase [µM]
Danio rerio embryo [2]	–	–	–	–	–	–	–	–	–	–	–	–	–	–	11.2	–	–	–
Danio rerio embryo [5]	–	–	–	–	–	–	–	–	–	–	–	–	7.8	–	–	–	–	–
Danio rerio embryo [6]	–	–	–	–	–	–	–	–	–	–	–	–	–	–	–	–	20.6	–
Danio rerio embryo [7]	–	–	–	–	–	–	–	–	–	–	–	–	–	–	–	–	–	20.5
Danio rerio embryo [8]	–	–	–	–	–	–	–	–	–	–	–	–	–	20.6	–	–	–	–
Danio rerio embryo [9]	–	–	–	–	–	–	–	–	–	–	–	–	–	–	–	35.5	–	–
Danio rerio embryo [10]	–	–	2.43	–	–	–	–	–	–	–	–	–	–	–	–	–	–	–
Danio rerio embryo [11]	–	–	–	–	–	–	–	–	4.28	–	–	–	–	–	–	–	–	–
Danio rerio embryo [18]	6.71	–	–	–	–	–	–	–	–	–	–	–	–	–	–	–	–	–
Danio rerio embryo [19]	–	–	–	–	–	–	7.09	–	–	–	–	–	–	–	–	–	–	–
Danio rerio embryo [20]	–	–	–	–	–	–	–	–	–	–	–	18.4	–	–	–	–	–	–
Danio rerio embryo [21]	–	–	–	–	–	–	–	–	–	–	18.8	–	–	–	–	–	–	–
Danio rerio embryo [22]	–	–	–	–	–	17.3	–	–	–	–	–	–	–	–	–	–	–	–
Danio rerio embryo [23]	–	–	–	–	17.8	–	–	–	–	–	–	–	–	–	–	–	–	–
Danio rerio embryo [24]	–	–	–	–	–	–	–	18.8	–	–	–	–	–	–	–	–	–	–
Danio rerio embryo [25]	–	17.8	–	–	–	–	–	–	–	–	–	–	–	–	–	–	–	–
Danio rerio embryo [27]	–	–	–	–	–	–	–	–	–	33.9	–	–	–	–	–	–	–	–
Danio rerio embryo [28]	–	–	–	33	–	–	–	–	–	–	–	–	–	–	–	–	–	–

From the supplement of paper PMC9013687
